Source: ChEMBL document CHEMBL4346716, “Synthesis of novel andrographolide beckmann rearrangement derivatives and evaluation of their HK2-related anti-inflammatory activities” (Eur J Med Chem, 2019)

T1: Hexokinase-2 (Homo sapiens, UniProt P52789)
T1 sequence (P52789 whole entry): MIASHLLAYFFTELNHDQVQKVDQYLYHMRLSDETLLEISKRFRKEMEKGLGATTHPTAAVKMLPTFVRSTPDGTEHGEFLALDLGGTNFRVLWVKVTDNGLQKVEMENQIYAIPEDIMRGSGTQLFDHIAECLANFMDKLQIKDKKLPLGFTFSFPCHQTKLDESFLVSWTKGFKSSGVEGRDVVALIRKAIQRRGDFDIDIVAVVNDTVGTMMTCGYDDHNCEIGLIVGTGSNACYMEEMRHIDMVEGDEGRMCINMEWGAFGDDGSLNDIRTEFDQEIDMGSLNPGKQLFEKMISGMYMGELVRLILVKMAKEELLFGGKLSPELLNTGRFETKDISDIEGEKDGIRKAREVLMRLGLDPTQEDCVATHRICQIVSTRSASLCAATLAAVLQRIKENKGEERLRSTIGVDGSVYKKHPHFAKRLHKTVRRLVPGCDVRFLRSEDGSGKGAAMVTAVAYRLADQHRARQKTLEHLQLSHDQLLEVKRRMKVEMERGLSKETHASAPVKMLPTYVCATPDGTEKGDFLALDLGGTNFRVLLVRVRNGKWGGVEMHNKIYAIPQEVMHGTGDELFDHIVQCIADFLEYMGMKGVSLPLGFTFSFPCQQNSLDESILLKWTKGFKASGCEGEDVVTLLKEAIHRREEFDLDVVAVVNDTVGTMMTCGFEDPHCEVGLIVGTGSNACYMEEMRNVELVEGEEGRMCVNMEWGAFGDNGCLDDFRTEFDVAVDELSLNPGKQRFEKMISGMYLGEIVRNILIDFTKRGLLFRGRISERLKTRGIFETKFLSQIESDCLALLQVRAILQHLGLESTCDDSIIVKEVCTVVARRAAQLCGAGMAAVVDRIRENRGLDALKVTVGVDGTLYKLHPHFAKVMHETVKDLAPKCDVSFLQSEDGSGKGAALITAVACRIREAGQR


Columns and labels:
Hexokinase-2 = target: T1, Hexokinase-2; assay: Inhibition of recombinant human HK2 expressed in Escherichia coli BL21(DE3) using glucose as substrate preincubated for 10 mins followed by substrate addition in presence of ATP by G6PDH/NADP coupled assay
RAW264.7 = assay: Antiinflammatory activity in mouse RAW264.7 cells assessed as inhibition of LPS-induced NO production preincubated for 3 hrs followed by LPS addition measured after 24 hrs by Griess assay; type: functional, cell-based
[1] = compound: C=C1CC[C@H]2[C@@](C)(CCC(=O)N[C@@]2(C)COC(=O)CCCC[C@@H]2CCSS2)[C@@H]1/C=C/C1=CCOC1=O; assay: Non competitive inhibition of recombinant human HK2 expressed in Escherichia coli BL21(DE3) assessed as Vmax using 3.125 uM glucose as substrate by Lineweaver-Burk double reciprocal plot analysis (reference value: 0.012 OD/min)
[2] = compound: C=C1CC[C@H]2[C@@](C)(CCC(=O)N[C@@]2(C)COC(=O)CCCC[C@@H]2CCSS2)[C@@H]1/C=C/C1=CCOC1=O; assay: Non competitive inhibition of recombinant human HK2 expressed in Escherichia coli BL21(DE3) assessed as Km using 12.5 uM glucose as substrate by Lineweaver-Burk double reciprocal plot analysis (reference value: 0.64 mM)
[3] = compound: C=C1CC[C@H]2[C@@](C)(CCC(=O)N[C@@]2(C)COC(=O)CCCC[C@@H]2CCSS2)[C@@H]1/C=C/C1=CCOC1=O; assay: Non competitive inhibition of recombinant human HK2 expressed in Escherichia coli BL21(DE3) assessed as Km using 12.5 uM ATP as substrate by Lineweaver-Burk double reciprocal plot analysis (reference value: 1.62 mM)
[4] = compound: C=C1CC[C@H]2[C@@](C)(CCC(=O)N[C@@]2(C)COC(=O)CCCC[C@@H]2CCSS2)[C@@H]1/C=C/C1=CCOC1=O; assay: Non competitive inhibition of recombinant human HK2 expressed in Escherichia coli BL21(DE3) assessed as Vmax using 12.5 uM glucose as substrate by Lineweaver-Burk double reciprocal plot analysis (reference value: 0.012 OD/min)
[5] = compound: C=C1CC[C@H]2[C@@](C)(CCC(=O)N[C@@]2(C)COC(=O)CCCC[C@@H]2CCSS2)[C@@H]1/C=C/C1=CCOC1=O; assay: Non competitive inhibition of recombinant human HK2 expressed in Escherichia coli BL21(DE3) assessed as Km using 3.125 uM ATP as substrate by Lineweaver-Burk double reciprocal plot analysis (reference value: 1.62 mM)
[6] = compound: C=C1CC[C@H]2[C@@](C)(CCC(=O)N[C@@]2(C)COC(=O)CCCC[C@@H]2CCSS2)[C@@H]1/C=C/C1=CCOC1=O; assay: Non competitive inhibition of recombinant human HK2 expressed in Escherichia coli BL21(DE3) assessed as Vmax using 6.25 uM glucose as substrate by Lineweaver-Burk double reciprocal plot analysis (reference value: 0.012 OD/min)
[7] = compound: C=C1CC[C@H]2[C@@](C)(CCC(=O)N[C@@]2(C)COC(=O)CCCC[C@@H]2CCSS2)[C@@H]1/C=C/C1=CCOC1=O; assay: Non competitive inhibition of recombinant human HK2 expressed in Escherichia coli BL21(DE3) assessed as Km using 3.125 uM glucose as substrate by Lineweaver-Burk double reciprocal plot analysis (reference value: 0.64 mM)
[8] = compound: C=C1CC[C@H]2[C@@](C)(CCC(=O)N[C@@]2(C)COC(=O)CCCC[C@@H]2CCSS2)[C@@H]1/C=C/C1=CCOC1=O; assay: Non competitive inhibition of recombinant human HK2 expressed in Escherichia coli BL21(DE3) assessed as Km using 6.25 uM ATP as substrate by Lineweaver-Burk double reciprocal plot analysis (reference value: 1.62 mM)
[9] = compound: C=C1CC[C@H]2[C@@](C)(CCC(=O)N[C@@]2(C)COC(=O)CCCC[C@@H]2CCSS2)[C@@H]1/C=C/C1=CCOC1=O; assay: Non competitive inhibition of recombinant human HK2 expressed in Escherichia coli BL21(DE3) assessed as Vmax using 12.5 uM ATP as substrate by Lineweaver-Burk double reciprocal plot analysis (reference value: 0.019 OD/min)
[10] = compound: C=C1CC[C@H]2[C@@](C)(CCC(=O)N[C@@]2(C)COC(=O)CCCC[C@@H]2CCSS2)[C@@H]1/C=C/C1=CCOC1=O; assay: Non competitive inhibition of recombinant human HK2 expressed in Escherichia coli BL21(DE3) assessed as Vmax using 3.125 uM ATP as substrate by Lineweaver-Burk double reciprocal plot analysis (reference value: 0.019 OD/min)
[11] = compound: C=C1CC[C@H]2[C@@](C)(CCC(=O)N[C@@]2(C)COC(=O)CCCC[C@@H]2CCSS2)[C@@H]1/C=C/C1=CCOC1=O; assay: Non competitive inhibition of recombinant human HK2 expressed in Escherichia coli BL21(DE3) assessed as Vmax using 6.25 uM ATP as substrate by Lineweaver-Burk double reciprocal plot analysis (reference value: 0.019 OD/min)
[12] = compound: C=C1CC[C@H]2[C@@](C)(CCC(=O)N[C@@]2(C)COC(=O)CCCC[C@@H]2CCSS2)[C@@H]1/C=C/C1=CCOC1=O; assay: Non competitive inhibition of recombinant human HK2 expressed in Escherichia coli BL21(DE3) assessed as Km using 6.25 uM glucose as substrate by Lineweaver-Burk double reciprocal plot analysis (reference value: 0.64 mM)

Row | Molecule | IC50 (Hexokinase-2) [µM] | IC50 (RAW264.7) [µM] | other results
1 | C=C1CC[C@H]2[C@@](C)(CC[C@@H](OC(=O)[C@@H](N)Cc3ccccc3)[C@@]2(C)NC=O)[C@@H]1/C=C/C1=CCOC1=O | > 50 | > 50 | –
2 | C=C1CC[C@H]2[C@@](C)(CCC(=O)N[C@@]2(C)COC(=O)c2ccccc2[N+](=O)[O-])[C@@H]1/C=C/C1=CCOC1=O | > 50 | > 50 | –
3 | C=C1CC[C@H]2[C@@](C)(CCC(=O)N[C@@]2(C)COC(=O)c2ccc([N+](=O)[O-])cc2)[C@@H]1/C=C/C1=CCOC1=O | > 50 | 33.5 | –
4 | C=C1CC[C@H]2[C@@](C)(CCC(=O)N[C@@]2(C)COC(=O)[C@H](N)CC(C)C)[C@@H]1/C=C/C1=CCOC1=O | > 50 | > 50 | –
5 | C=C1CC[C@H]2[C@@](C)(CCC(=O)N[C@@]2(C)CO)[C@@H]1/C=C/C1=CCOC1=O | > 50 | > 50 | –
6 | C=C1CC[C@H]2[C@@](C)(CC[C@@H](OC(=O)c3ccc([N+](=O)[O-])cc3)[C@@]2(C)NC=O)[C@@H]1/C=C/C1=CCOC1=O | > 50 | > 50 | –
7 | C=C1CC[C@H]2[C@@](C)(CC[C@@H](OC(=O)[C@H]3CCCN3)[C@@]2(C)NC=O)[C@@H]1/C=C/C1=CCOC1=O | 26.1 | > 50 | –
8 | C=C1CC[C@H]2[C@@](C)(CC[C@@H](OC(=O)c3ccccc3[N+](=O)[O-])[C@@]2(C)NC=O)[C@@H]1/C=C/C1=CCOC1=O | > 50 | > 50 | –
9 | C=C1CC[C@@H]2[C@](C)(CO)[C@H](O)CC[C@@]2(C)[C@@H]1C/C=C1/C(=O)OC[C@H]1O [ANDROGRAPHOLIDE] | > 50 | 14.4 | –
10 | C=C1CC[C@H]2[C@@](C)(CC[C@@H](O)[C@@]2(C)NC=O)[C@@H]1/C=C/C1=CCOC1=O | > 50 | > 50 | –
11 | C[C@]12CCC(=O)C=C1CC[C@@H]1[C@@H]2[C@@H](O)C[C@@]2(C)[C@H]1CC[C@]2(O)C(=O)CO [HYDROCORTISONE] | – | 52.4 | –
12 | C=C1CC[C@H]2[C@@](C)(CCC(=O)N[C@@]2(C)COC(=O)[C@@H]2CCCN2)[C@@H]1/C=C/C1=CCOC1=O | > 50 | > 50 | –
13 | C=C1CC[C@H]2[C@@](C)(CC[C@@H](OC(=O)CCCC[C@@H]3CCSS3)[C@@]2(C)NC=O)[C@@H]1/C=C/C1=CCOC1=O | > 50 | > 50 | –
14 | C=C1CC[C@H]2[C@@](C)(CCC(=O)N[C@@]2(C)COC(=O)c2cccnc2)[C@@H]1/C=C/C1=CCOC1=O | > 50 | > 50 | –
15 | C=C1CC[C@H]2[C@@](C)(CCC(=O)N[C@@]2(C)COC(=O)[C@H](N)Cc2ccccc2)[C@@H]1/C=C/C1=CCOC1=O | 4.8 | > 50 | –
16 | C=C1CC[C@H]2[C@@](C)(CCC(=O)N[C@@]2(C)COC(=O)c2ccccc2)[C@@H]1/C=C/C1=CCOC1=O | > 50 | > 50 | –
17 | C=C1CC[C@H]2[C@@](C)(CC[C@@H](OC(=O)CNC)[C@@]2(C)NC=O)[C@@H]1/C=C/C1=CCOC1=O | > 50 | > 50 | –
18 | C=C1CC[C@H]2[C@@](C)(CC[C@@H](OC(=O)c3ccccc3)[C@@]2(C)NC=O)[C@@H]1/C=C/C1=CCOC1=O | > 50 | 50 | –
19 | C=C1CC[C@H]2[C@@](C)(CC[C@@H](OC(=O)C(N)CC(C)C)[C@@]2(C)NC=O)[C@@H]1/C=C/C1=CCOC1=O (single isomer, unassigned) | > 50 | > 50 | –
20 | C=C1CC[C@H]2[C@@](C)(CC[C@@H](OC(=O)c3cccnc3)[C@@]2(C)NC=O)[C@@H]1/C=C/C1=CCOC1=O | > 50 | > 50 | –
21 | C=C1CC[C@H]2[C@@](C)(CC[C@@H](OC(=O)CN)[C@@]2(C)NC=O)[C@@H]1/C=C/C1=CCOC1=O | > 50 | > 50 | –
22 | Hexokinase-2 (Homo sapiens), P52789 (protein) MIASHLLAYFFTELNHDQVQKVDQYLYHMRLSDETLLEISKRFRKEMEKGLGATTHPTAAVKMLPTFVRSTPDGTEHGEFLALDLGGTNFRVLWVKVTDNGLQKVEMENQIYAIPEDIMRGSGTQLFDHIAECLANFMDKLQIKDKKLPLGFTFSFPCHQTKLDESFLVSWTKGFKSSGVEGRDVVALIRKAIQRRGDFDIDIVAVVNDTVGTMMTCGYDDHNCEIGLIVGTGSNACYMEEMRHIDMVEGDEGRMCINMEWGAFGDDGSLNDIRTEFDQEIDMGSLNPGKQLFEKMISGMYMGELVRLILVKMAKEELLFGGKLSPELLNTGRFETKDISDIEGEKDGIRKAREVLMRLGLDPTQEDCVATHRICQIVSTRSASLCAATLAAVLQRIKENKGEERLRSTIGVDGSVYKKHPHFAKRLHKTVRRLVPGCDVRFLRSEDGSGKGAAMVTAVAYRLADQHRARQKTLEHLQLSHDQLLEVKRRMKVEMERGLSKETHASAPVKMLPTYVCATPDGTEKGDFLALDLGGTNFRVLLVRVRNGKWGGVEMHNKIYAIPQEVMHGTGDELFDHIVQCIADFLEYMGMKGVSLPLGFTFSFPCQQNSLDESILLKWTKGFKASGCEGEDVVTLLKEAIHRREEFDLDVVAVVNDTVGTMMTCGFEDPHCEVGLIVGTGSNACYMEEMRNVELVEGEEGRMCVNMEWGAFGDNGCLDDFRTEFDVAVDELSLNPGKQRFEKMISGMYLGEIVRNILIDFTKRGLLFRGRISERLKTRGIFETKFLSQIESDCLALLQVRAILQHLGLESTCDDSIIVKEVCTVVARRAAQLCGAGMAAVVDRIRENRGLDALKVTVGVDGTLYKLHPHFAKVMHETVKDLAPKCDVSFLQSEDGSGKGAALITAVACRIREAGQR | – | – | Vmax (optical density/minute) [1]: 0.007; Km [2]: 657 µM; Km [3]: 1210 µM; Vmax (optical density/minute) [4]: 0.004; Km [5]: 1280 µM; Vmax (optical density/minute) [6]: 0.005; Km [7]: 685 µM; Km [8]: 1280 µM; Vmax (optical density/minute) [9]: 0.005; Vmax (optical density/minute) [10]: 0.012; Vmax (optical density/minute) [11]: 0.007; Km [12]: 695 µM
